Biological target: T1, GABA A receptor α5β3γ2 (Homo sapiens, UniProt P18507+P31644)
T1 construct: expressed in transfected cells; host or cells: HEK293 cells, transiently transfected; membranes prepared
Experiment: [3H]flumazenil competition binding, human GABA A α5β3γ2
Settings: competition for [3H]flumazenil (0.5 nM) binding, HEK293 cells expressing human (transiently transfected) α5β3γ2; means of two determinations; read-out: Ki[nM] hα5
Method: Membrane Preparation and Binding Assay
The affinity of compounds at GABA A receptor subtypes was measured by competition for [3H]flumazenil (85 Ci/mmol; Roche) binding to HEK293 cells expressing rat (stably transfected) or human (transiently transfected) receptors of composition
Cell pellets were suspended in Krebs-tris buffer (4.8 mM KCl, 1.2 mM CaCl2, 1.2 mM MgCl2, 120 mM NaCl, 15 mM Tris; pH 7.5; binding assay buffer), homogenized by polytron for ca. 20 sec on ice and centrifuged for 60 min at 4° C. (50000 g; Sorvall, rotor: SM24=20000 rpm). The cell pellets were resuspended in Krebs-tris buffer and homogenized by polytron for ca. 15 sec on ice. Protein was measured (Bradford method, Bio-Rad) and aliquots of 1 mL were prepared and stored at −80° C.
Assays were incubated to equilibrium for 1 hour at 4° C. and harvested onto GF/C uni-filters (Packard) by filtration using a Packard harvester and washing with ice-cold wash buffer (50 mM Tris; pH 7.5). After drying, filter-retained radioactivity was detected by liquid scintillation counting. Ki values were calculated using Excel-Fit (Microsoft) and are the means of two determinations.

| Ki [nM] | SMILES |
| --- | --- |
| 13.4 | COc1cc(N2CCNCC2)ccc1-c1nnc(-c2c(-c3ccccc3)noc2C)o1 [Example 66, 1-{3-Methoxy-4-[5-(5-methyl-3-phenyl-isoxazol-4-yl)-[1,3,4]oxadiazol-2-yl]-phenyl}-piperazine] |
| 15.5 | COc1cc(N2CCN(C)CC2)ccc1-c1nnc(-c2c(-c3ccccc3)noc2C)o1 [Example 67, 1-{3-Methoxy-4-[5-(5-methyl-3-phenyl-isoxazol-4-yl)-[1,3,4]oxadiazol-2-yl]-phenyl}-4-methyl-piperazine] |
| 4.2 | COc1cc(N2CCOCC2)ccc1-c1nnc(-c2c(-c3ccccc3)noc2C)o1 [Example 68, 4-{3-Methoxy-4-[5-(5-methyl-3-phenyl-isoxazol-4-yl)-[1,3,4]oxadiazol-2-yl]-phenyl}-morpholine] |
| 8.1 | COc1ccccc1-c1nnc(-c2c(-c3ccccc3)noc2C2CC2)o1 [Example 69, 2-(5-Cyclopropyl-3-phenyl-isoxazol-4-yl)-5-(2-methoxy-phenyl)-[1,3,4]oxadiazole] |
| 262 | Cc1onc(-c2ccccc2)c1-c1nnc(C2CCCCC2)o1 [Example 70, 2-Cyclohexyl-5-(5-methyl-3-phenyl-isoxazol-4-yl)-[1,3,4]oxadiazole] |
| 289 | COC(=O)c1ccc(-c2nnc(-c3c(-c4ccccc4)noc3C)o2)cc1 [Example 71, 4-[5-(5-Methyl-3-phenyl-isoxazol-4-yl)-[1,3,4]oxadiazol-2-yl]-benzoic acid methyl ester] |
| 12 | COc1cc(N(C)C)ccc1-c1nnc(-c2c(-c3ccccc3)noc2C)o1 [Example 72, {3-Methoxy-4-[5-(5-methyl-3-phenyl-isoxazol-4-yl)-[1,3,4]oxadiazol-2-yl]-phenyl}-dimethyl-amine] |
| 11.9 | COc1cc(F)ccc1-c1nnc(-c2c(-c3ccccc3)noc2C2CC2)o1 [Example 73, 2-(5-Cyclopropyl-3-phenyl-isoxazol-4-yl)-5-(4-fluoro-2-methoxy-phenyl)-[1,3,4]oxadiazole] |
| 134 | Cc1onc(-c2ccccc2)c1-c1nnc(-c2ccc3[nH]ccc3c2)o1 [Example 74, 5-[5-(5-Methyl-3-phenyl-isoxazol-4-yl)-[1,3,4]oxadiazol-2-yl]-1H-indole] |
| 129 | Cc1onc(-c2ccccc2)c1-c1nnc(-c2ccc3c(ccn3C)c2)o1 [Example 75, 1-Methyl-5-[5-(5-methyl-3-phenyl-isoxazol-4-yl)-[1,3,4]oxadiazol-2-yl]-1H-indole] |
| 189 | Cc1onc(-c2ccccc2)c1-c1nnc(-c2ccc(F)cc2F)o1 [Example 76, 2-(2,4-Difluoro-phenyl)-5-(5-methyl-3-phenyl-isoxazol-4-yl)-[1,3,4]oxadiazole] |
| 2.1 | COc1cc(N2CCOCC2)ccc1-c1nnc(-c2c(-c3ccccc3)noc2C2CC2)o1 [Example 77, 4-{4-[5-(5-Cyclopropyl-3-phenyl-isoxazol-4-yl)-[1,3,4]oxadiazol-2-yl]-3-methoxy-phenyl}-morpholine] |
| 42.1 | Cc1onc(-c2ccccc2)c1-c1nnc(-c2ccc(C(=O)NC3CC3)cc2)o1 [Example 78, N-Cyclopropyl-4-[5-(5-methyl-3-phenyl-isoxazol-4-yl)-[1,3,4]oxadiazol-2-yl]-benzamide] |
| 469 | Cc1onc(-c2ccccc2)c1-c1nnc(-c2ccc(C(=O)N3CCOCC3)cc2)o1 [Example 80, {4-[5-(5-Methyl-3-phenyl-isoxazol-4-yl)-[1,3,4]oxadiazol-2-yl]-phenyl}-morpholin-4-yl-methanone] |
| 86 | Cc1onc(-c2ccccc2)c1-c1nnc(-c2ccc(C(=O)NC3CCOCC3)cc2)o1 [Example 81, 4-[5-(5-Methyl-3-phenyl-isoxazol-4-yl)-[1,3,4]oxadiazol-2-yl]-N-(tetrahydro-pyran-4-yl)-benzamide] |
| 3.7 | COc1cc(NC2CCOCC2)ccc1-c1nnc(-c2c(-c3ccccc3)noc2C2CC2)o1 [Example 82, {4-[5-(5-Cyclopropyl-3-phenyl-isoxazol-4-yl)-[1,3,4]oxadiazol-2-yl]-3-methoxy-phenyl}-(tetrahydro-pyran-4-yl)-amine] |

Source: US7956074B2, “Aryl-isoxazolo-4-yl-oxadiazole derivatives” (Hoffman-La Roche Inc., priority 2005, dated 2011)
